Activity calls are given as the source filed them. The rule behind the calls is not given here.
Key:
Hexokinase-4 = target: T1, Hexokinase-4 (Homo sapiens, UniProt P35557); assay: Allosteric activation of human glucokinase using glucose as substrate measured every 10 secs for 5 mins
T1 sequence (P35557 whole entry): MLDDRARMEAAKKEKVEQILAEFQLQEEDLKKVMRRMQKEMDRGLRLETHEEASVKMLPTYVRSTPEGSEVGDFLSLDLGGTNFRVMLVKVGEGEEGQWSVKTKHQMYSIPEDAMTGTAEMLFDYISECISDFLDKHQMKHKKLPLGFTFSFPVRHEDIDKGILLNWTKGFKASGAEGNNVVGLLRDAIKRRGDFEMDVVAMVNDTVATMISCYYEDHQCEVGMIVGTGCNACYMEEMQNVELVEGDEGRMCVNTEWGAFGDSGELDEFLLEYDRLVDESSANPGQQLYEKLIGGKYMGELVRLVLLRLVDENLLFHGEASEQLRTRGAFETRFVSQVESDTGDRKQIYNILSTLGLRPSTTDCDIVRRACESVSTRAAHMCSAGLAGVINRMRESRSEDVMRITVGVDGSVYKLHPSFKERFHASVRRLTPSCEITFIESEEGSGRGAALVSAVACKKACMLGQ

[1] = Terminal plasma concentration in C57BL/6J mouse at 50 mg/kg, po administered 30 mins measured after 2.5 hrs; assay type: ADME, organism-based; set-up: dose 50 mg/kg, route oral; settings: read-out: Cp(T)
Rattus norvegicus = assay: Antidiabetic activity in high fat-fed Zucker diabetic fatty rat assessed as decrease in blood glucose AUC at 50 mg/kg, po after 21 days on high-fat diet measured for 2 hrs post dose by OGTT relative to control; set-up: scale not given: the % may be the effect or the level left
Mus musculus [2] = assay: Toxicity in C57BL/6J mouse assessed as induction of hypoglycemia at 50 mg/kg, po administered 30 mins prior to glucose challenge measured over 2 hrs; assay type: organism-based; set-up: dose 50 mg/kg, route oral; settings: in vivo
Mus musculus [3] = assay: Antidiabetic activity in C57BL/6J mouse assessed as reduction of glucose excursion at 50 mg/kg, po administered 30 mins prior to glucose challenge measured over 2 hrs by OGTT; assay type: functional, organism-based; set-up: dose 50 mg/kg

| Structure (SMILES) | EC50 (Hexokinase-4) | further results |
| --- | --- | --- |
| CC(C)c1csc(Nc2ncc(SCCn3ccnc3)cc2OCc2ccccc2)n1 |  | concentration at 2.5 h [1]: 4500 ng/mL; Activity (Rattus norvegicus): 23%; Activity (Mus musculus [2]): Non-toxic; Activity (Mus musculus [3]): Active |
| Cc1csc(Nc2ncccc2OCc2cccnc2)n1 | 7780 nM |  |
| Cc1csc(Nc2ncc(SCc3ccccn3)cc2OCc2ccccc2)n1 | 77 nM |  |
| Cc1csc(Nc2ncc(SCCn3ccnc3)cc2OCc2ccccc2)n1 | 325 nM |  |
| Cc1csc(Nc2ncc(SCc3ccccc3)cc2OCc2ccccc2)n1 | 235 nM |  |
| COc1cccc(COc2cccnc2Nc2nc(C)cs2)c1 | 3220 nM |  |
| N#C[C@@H]1CCCN1C(=O)CNC12CC3CC(CC(O)(C3)C1)C2 [VILDAGLIPTIN] |  | Activity (Rattus norvegicus): 24% |
| Cc1csc(Nc2ncc(Sc3ccccn3)cc2OCc2ccccc2)n1 | 231 nM |  |
| CC(C)Cc1csc(Nc2ncc(Br)cc2OCc2ccccc2)n1 | 356 nM |  |
| Cc1csc(Nc2ncc(Sc3ccccc3)cc2OCc2ccccc2)n1 | 208 nM |  |
| Cc1csc(Nc2ncccc2OCc2cccc3cccnc23)n1 | 1700 nM |  |

Continued by falling EC50 (Hexokinase-4), values first:

| EC50 (Hexokinase-4) | Structure (SMILES) | further results |
| --- | --- | --- |
| 12300 nM | Cc1csc(Nc2ncccc2OCc2ccccn2)n1 |  |
| 3440 nM | Cc1csc(Nc2ncccc2OCc2cccc(O)c2)n1 |  |
| 796 nM | Cc1csc(Nc2ncc(Cl)cc2OCc2ccccc2)n1 |  |
| 687 nM | Cc1csc(Nc2ncc(Br)cc2OCc2ccccc2)n1 |  |
| 562 nM | CCc1csc(Nc2ncc(Br)cc2OCc2ccccc2)n1 |  |
| 240 nM | CC(C)c1csc(Nc2ncc(Br)cc2OCc2ccccc2)n1 |  |

Reference: ChEMBL document CHEMBL2429745, “Identification of a new class of glucokinase activators through structure-based design” (J Med Chem, 2013)
